Results reported in ChEMBL document CHEMBL5291721, “A preclinical secondary pharmacology resource illuminates target-adverse drug reaction associations of marketed drugs” (Nat Commun, 2023).
*1 amine or outer side, *2 acyl side, *3 side chain or, on linkers, in order; H or OH if unused. Where a SMILES comes first, the peptide text is derived from it. Bridges are numbered along the chain shown (N, C = ends). [ ]: non-standard residue; d: D form. The star is where a group is joined. hTyr(3S-OH,4S-OH,3'-OSO3H) = N[C@H](C(=O)O)[C@H](O)[C@@H](O)c1ccc(O)c(OS(=O)(=O)O)c1; Orn(4R-OH,5R-OH) = O=C([C@H](C[C@@H](O)[C@@H](O)N[*:3])N[*:1])[*:2]; Pro(3S-OH,4S-Me) = C[C@H]1CN[C@H](C(=O)O)[C@H]1O; X1 = CCCCCOc1ccc(-c2cc(-c3ccc(C(=O)*)cc3)no2)cc1; Gln(3R-OH) = NC(=O)C[C@@H](O)[C@H](N)C(=O)O; Hyp = O=C(O)[C@@H]1C[C@@H](O)CN1

Assays:
[1] = target: Sodium-dependent noradrenaline transporter (Homo sapiens, UniProt P23975)
Sodium-dependent noradrenaline transporter, sequence (P23975 whole entry): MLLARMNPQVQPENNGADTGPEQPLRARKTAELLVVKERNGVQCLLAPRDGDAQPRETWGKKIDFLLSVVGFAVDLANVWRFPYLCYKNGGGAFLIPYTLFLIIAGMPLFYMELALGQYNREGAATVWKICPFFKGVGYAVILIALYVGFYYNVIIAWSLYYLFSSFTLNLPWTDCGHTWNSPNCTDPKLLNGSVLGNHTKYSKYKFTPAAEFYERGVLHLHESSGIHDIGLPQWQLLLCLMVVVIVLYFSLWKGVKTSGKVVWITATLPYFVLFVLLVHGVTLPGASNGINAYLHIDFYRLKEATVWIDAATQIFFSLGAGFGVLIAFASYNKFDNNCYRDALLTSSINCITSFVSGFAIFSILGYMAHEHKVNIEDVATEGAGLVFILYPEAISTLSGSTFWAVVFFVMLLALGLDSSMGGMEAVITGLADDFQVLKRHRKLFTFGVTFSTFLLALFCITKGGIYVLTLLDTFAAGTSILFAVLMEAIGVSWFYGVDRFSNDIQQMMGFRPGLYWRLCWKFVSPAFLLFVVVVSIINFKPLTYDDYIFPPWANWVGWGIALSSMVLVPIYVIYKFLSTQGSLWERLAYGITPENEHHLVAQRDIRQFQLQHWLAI

[2] = target: Sodium-dependent dopamine transporter (Homo sapiens, UniProt Q01959)
Sodium-dependent dopamine transporter, sequence (Q01959 whole entry): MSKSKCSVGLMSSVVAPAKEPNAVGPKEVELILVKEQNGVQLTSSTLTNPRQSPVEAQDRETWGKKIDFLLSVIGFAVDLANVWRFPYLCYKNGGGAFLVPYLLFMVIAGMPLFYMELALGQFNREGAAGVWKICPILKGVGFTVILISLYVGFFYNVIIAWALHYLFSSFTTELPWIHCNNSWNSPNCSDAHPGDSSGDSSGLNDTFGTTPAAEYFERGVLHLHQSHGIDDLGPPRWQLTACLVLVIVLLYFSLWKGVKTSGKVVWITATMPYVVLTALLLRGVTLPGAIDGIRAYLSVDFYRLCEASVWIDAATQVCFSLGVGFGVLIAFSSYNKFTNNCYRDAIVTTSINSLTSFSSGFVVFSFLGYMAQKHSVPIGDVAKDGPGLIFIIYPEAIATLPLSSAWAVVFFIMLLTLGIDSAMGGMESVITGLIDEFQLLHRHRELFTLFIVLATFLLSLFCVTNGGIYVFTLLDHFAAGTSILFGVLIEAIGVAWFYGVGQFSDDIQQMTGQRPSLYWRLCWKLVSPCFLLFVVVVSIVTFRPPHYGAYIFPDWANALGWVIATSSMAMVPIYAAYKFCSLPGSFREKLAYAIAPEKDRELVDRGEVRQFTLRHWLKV

[3] = target: Voltage-gated inwardly rectifying potassium channel KCNH2 (Homo sapiens, UniProt Q12809); format: functional; conditions: read-out: AC50
Voltage-gated inwardly rectifying potassium channel KCNH2, sequence (Q12809 whole entry): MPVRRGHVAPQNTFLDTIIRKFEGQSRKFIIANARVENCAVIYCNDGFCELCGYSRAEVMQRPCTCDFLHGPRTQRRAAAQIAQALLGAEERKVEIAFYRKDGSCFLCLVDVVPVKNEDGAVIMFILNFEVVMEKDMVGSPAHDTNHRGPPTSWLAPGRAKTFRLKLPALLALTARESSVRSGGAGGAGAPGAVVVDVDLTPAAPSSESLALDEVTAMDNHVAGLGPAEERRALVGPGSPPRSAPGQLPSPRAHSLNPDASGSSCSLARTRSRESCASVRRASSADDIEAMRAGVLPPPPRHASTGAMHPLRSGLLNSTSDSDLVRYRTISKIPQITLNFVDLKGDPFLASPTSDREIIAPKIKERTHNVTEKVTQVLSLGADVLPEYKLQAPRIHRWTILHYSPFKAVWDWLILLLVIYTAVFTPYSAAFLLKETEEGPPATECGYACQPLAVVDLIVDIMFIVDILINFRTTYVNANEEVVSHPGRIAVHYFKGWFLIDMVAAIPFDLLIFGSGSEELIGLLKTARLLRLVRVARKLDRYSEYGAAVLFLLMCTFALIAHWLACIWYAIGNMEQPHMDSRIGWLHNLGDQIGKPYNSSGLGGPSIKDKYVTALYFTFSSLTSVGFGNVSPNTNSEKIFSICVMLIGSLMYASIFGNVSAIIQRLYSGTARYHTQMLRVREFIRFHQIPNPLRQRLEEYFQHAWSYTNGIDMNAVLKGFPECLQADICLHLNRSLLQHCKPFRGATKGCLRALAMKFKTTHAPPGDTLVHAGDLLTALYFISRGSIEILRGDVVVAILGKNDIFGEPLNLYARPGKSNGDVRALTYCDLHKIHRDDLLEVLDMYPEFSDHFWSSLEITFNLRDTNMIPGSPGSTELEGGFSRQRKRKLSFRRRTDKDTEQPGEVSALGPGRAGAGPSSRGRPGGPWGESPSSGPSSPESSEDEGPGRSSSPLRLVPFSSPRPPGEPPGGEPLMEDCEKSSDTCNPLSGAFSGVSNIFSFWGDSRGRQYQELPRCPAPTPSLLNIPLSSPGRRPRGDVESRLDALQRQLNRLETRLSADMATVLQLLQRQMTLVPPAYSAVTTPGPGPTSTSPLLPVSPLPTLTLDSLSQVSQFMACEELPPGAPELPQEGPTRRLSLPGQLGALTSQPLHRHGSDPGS

D(1A) dopamine receptor = D(1A) dopamine receptor (Homo sapiens, UniProt P21728)
D(1A) dopamine receptor, sequence (P21728 whole entry): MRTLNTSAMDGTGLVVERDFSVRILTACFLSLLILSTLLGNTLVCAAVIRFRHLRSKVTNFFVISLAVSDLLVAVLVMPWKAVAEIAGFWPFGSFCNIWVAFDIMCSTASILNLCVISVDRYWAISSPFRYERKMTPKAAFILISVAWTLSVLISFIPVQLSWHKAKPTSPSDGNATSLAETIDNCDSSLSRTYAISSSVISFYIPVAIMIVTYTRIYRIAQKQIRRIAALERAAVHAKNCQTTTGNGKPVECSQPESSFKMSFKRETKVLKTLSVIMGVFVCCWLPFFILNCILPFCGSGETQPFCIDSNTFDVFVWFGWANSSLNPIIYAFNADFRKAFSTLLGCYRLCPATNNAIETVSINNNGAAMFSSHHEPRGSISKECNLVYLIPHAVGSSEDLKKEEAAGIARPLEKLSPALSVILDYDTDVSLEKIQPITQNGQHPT

[4] = target: T1, Muscarinic acetylcholine receptor M1 (Homo sapiens, UniProt P11229); format: functional, cell-based
T1 sequence (P11229 whole entry): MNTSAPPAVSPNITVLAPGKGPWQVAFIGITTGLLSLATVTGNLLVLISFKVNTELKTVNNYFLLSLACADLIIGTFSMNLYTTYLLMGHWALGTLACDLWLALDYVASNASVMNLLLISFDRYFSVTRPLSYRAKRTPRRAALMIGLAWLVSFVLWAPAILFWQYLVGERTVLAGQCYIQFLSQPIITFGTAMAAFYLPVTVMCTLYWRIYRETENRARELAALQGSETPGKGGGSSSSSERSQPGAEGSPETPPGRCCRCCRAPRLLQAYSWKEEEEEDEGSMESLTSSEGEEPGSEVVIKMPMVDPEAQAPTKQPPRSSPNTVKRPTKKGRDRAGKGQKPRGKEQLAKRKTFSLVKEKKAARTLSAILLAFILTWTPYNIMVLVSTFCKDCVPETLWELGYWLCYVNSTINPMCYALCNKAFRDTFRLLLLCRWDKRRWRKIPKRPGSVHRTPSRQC

[5] = target: 5-hydroxytryptamine receptor 2B (Homo sapiens, UniProt P41595); format: functional, cell-based
5-hydroxytryptamine receptor 2B, sequence (P41595 whole entry): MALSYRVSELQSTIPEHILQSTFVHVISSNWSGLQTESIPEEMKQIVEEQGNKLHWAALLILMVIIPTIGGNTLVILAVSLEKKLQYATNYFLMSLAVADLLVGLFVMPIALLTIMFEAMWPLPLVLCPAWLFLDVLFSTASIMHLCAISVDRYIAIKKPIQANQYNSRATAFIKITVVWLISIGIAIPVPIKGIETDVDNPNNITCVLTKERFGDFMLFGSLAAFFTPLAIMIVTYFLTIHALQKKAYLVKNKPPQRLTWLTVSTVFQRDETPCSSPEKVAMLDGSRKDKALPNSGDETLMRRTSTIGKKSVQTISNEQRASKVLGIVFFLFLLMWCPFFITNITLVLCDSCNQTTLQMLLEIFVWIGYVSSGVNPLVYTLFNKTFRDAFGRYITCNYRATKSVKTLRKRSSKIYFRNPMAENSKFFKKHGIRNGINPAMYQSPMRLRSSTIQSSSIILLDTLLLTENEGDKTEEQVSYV
Further: assay procedure not described here.

Row | Structure (SMILES) | AC50 [1] | AC50 [2] | AC50 [3] | AC50 (D(1A) dopamine receptor) | AC50 [4] | AC50 [5]
1 | COc1nccnc1NS(=O)(=O)c1ccc(N)cc1 | > 30 µM | > 30 µM | > 30 µM | > 30 µM | > 30 µM | > 30 µM
2 | O=C(Nc1cccc2c(=O)cc(-c3nnn[nH]3)oc12)c1ccc(OCCCCc2ccccc2)cc1 | 7.06 µM | 8.24 µM | – | 10.1 µM | > 30 µM | > 30 µM
3 | NC(=O)c1nc(F)c[nH]c1=O | > 30 µM | > 30 µM | > 30 µM | > 30 µM | > 30 µM | > 30 µM
4 | CN(C)CCCN1C(=O)c2cc([N+](=O)[O-])ccc2Oc2ccccc21 | > 30 µM | > 30 µM | > 30 µM | 26 µM | > 30 µM | > 30 µM
5 | O=C(O)COc1nn(Cc2ccccc2)c2ccccc12 [BENDAZAC] | > 30 µM | > 30 µM | > 30 µM | > 30 µM | > 30 µM | > 30 µM
6 | Cc1ccc([C@@H]2O[C@H](CO)[C@@H](O)[C@H](O)[C@H]2O)cc1Cc1ccc(-c2ccc(F)cc2)s1 [CANAGLIFLOZIN ANHYDROUS] | > 30 µM | 3.54 µM | > 30 µM | > 30 µM | > 30 µM | > 30 µM
7 | CN(C)CCN(Cc1ccc(Cl)cc1)c1ccccn1 [CHLOROPYRAMINE] | 19.4 µM | 0.21 µM | 0.54 µM | 2.23 µM | 2.27 µM | > 30 µM
8 | O=C(O)c1cc(=O)c2ccccc2o1 [CHROMOCARB] | > 30 µM | > 30 µM | > 30 µM | > 30 µM | > 30 µM | > 30 µM
9 | CN(CC(=O)O)C(=N)N [CREATINE] | > 30 µM | > 30 µM | > 30 µM | > 30 µM | > 30 µM | > 30 µM
10 | N[C@@H](CSSC[C@H](N)C(=O)O)C(=O)O [CYSTINE] | > 30 µM | > 30 µM | – | > 30 µM | > 30 µM | > 30 µM
11 | C[C@]12CC[C@@H]3c4ccc(O)cc4CC[C@H]3[C@@H]1CC[C@@H]2OC(=O)CCC1CCCC1 [ESTRADIOL CYPIONATE] | > 30 µM | > 30 µM | > 30 µM | > 30 µM | > 30 µM | > 30 µM
12 | C[C@]12CCC(=O)C=C1CC[C@@H]1[C@@H]2[C@@H](O)C[C@@]2(C)[C@H]1CC[C@]2(O)C(=O)COC(=O)CCC(=O)O [HYDROCORTISONE HEMISUCCINATE ANHYDROUS] | > 30 µM | > 30 µM | > 30 µM | > 30 µM | > 30 µM | > 30 µM
13 | N=C(N)NCc1cccc([123I])c1 [IOBENGUANE I 123] | 8.75 µM | 6.39 µM | > 30 µM | 13.4 µM | > 30 µM | > 30 µM
14 | CC(C)(N)C(=O)N[C@H](Cc1c[nH]c2ccccc12)C(=O)N[C@H](Cc1c[nH]c2ccccc12)NC=O [MACIMORELIN] | > 30 µM | > 30 µM | – | > 30 µM | > 30 µM | > 30 µM
15 | C=C1c2c(Cl)ccc(O)c2C(=O)C2=C(O)[C@]3(O)C(=O)C(C(N)=O)=C(O)[C@@H](N(C)C)[C@@H]3[C@@H](O)[C@H]12 [MECLOCYCLINE] | > 30 µM | > 30 µM | > 30 µM | > 30 µM | > 30 µM | > 30 µM
16 | Cc1cc2c(OCC(O)CNC(C)C)cccc2[nH]1 (stereo unspecified) [MEPINDOLOL] | 5.31 µM | > 30 µM | > 30 µM | > 30 µM | > 30 µM | > 30 µM
17 | CCCCCOc1ccc(-c2cc(-c3ccc(C(=O)N[C@H]4C[C@@H](O)[C@@H](O)NC(=O)[C@@H]5[C@@H](O)[C@@H](C)CN5C(=O)[C@H]([C@H](O)CC(N)=O)NC(=O)[C@H]([C@H](O)[C@@H](O)c5ccc(O)c(OS(=O)(=O)O)c5)NC(=O)[C@@H]5C[C@@H](O)CN5C(=O)[C@H]([C@@H](C)O)NC4=O)cc3)no2)cc1 [MICAFUNGIN] (X1-[Orn(4R-OH,5R-OH)]T[Hyp][hTyr(3S-OH,4S-OH,3'-OSO3H)][Gln(3R-OH)][Pro(3S-OH,4S-Me)]; lactam 1-C) | 14.6 µM | 21.7 µM | – | > 30 µM | > 30 µM | > 30 µM
18 | CCOc1ccc2ccccc2c1C(=O)N[C@@H]1C(=O)N2[C@@H]1SC(C)(C)[C@@H]2C(=O)O [NAFCILLIN] | > 30 µM | > 30 µM | > 30 µM | > 30 µM | > 30 µM | > 30 µM
20 | CCCCCCCCCCC[C@@H](C[C@@H]1OC(=O)[C@H]1CCCCCC)OC(=O)[C@H](CC(C)C)NC=O [ORLISTAT] | > 30 µM | > 30 µM | > 30 µM | > 30 µM | > 30 µM | > 30 µM
21 | O=C1[C@H]2CCCC[C@H]2C(=O)N1CCCCN1CCN(c2nsc3ccccc23)CC1 [PEROSPIRONE] | 2.98 µM | 3.31 µM | 2.3 µM | 0.054 µM | > 30 µM | > 30 µM
22 | CN(C)CCC(c1ccccc1)c1ccccn1 (stereo unspecified) [PHENIRAMINE] | 26.3 µM | > 30 µM | > 30 µM | > 30 µM | > 30 µM | > 30 µM
23 | CC(C)COc1ccc(CNC(=O)N(Cc2ccc(F)cc2)C2CCN(C)CC2)cc1 [PIMAVANSERIN] | 6.92 µM | 12.8 µM | – | 5.78 µM | 29.9 µM | > 30 µM
24 | CC(C)(C)C(=O)NCCCC(=O)O [PIVAGABINE] | > 30 µM | > 30 µM | > 30 µM | > 30 µM | > 30 µM | > 30 µM
25 | CC(C)[N+](C)(CCOC(=O)C1c2ccccc2Oc2ccccc21)C(C)C [PROPANTHELINE] | > 30 µM | > 30 µM | 2 µM | > 30 µM | > 30 µM | > 30 µM
26 | CN(C)C(=O)c1nc(CNC(=O)CN)n(-c2ccc(Cl)cc2C(=O)c2ccccc2Cl)n1 [RILMAZAFONE] | > 30 µM | > 30 µM | – | > 30 µM | > 30 µM | > 30 µM
27 | NC(=O)NS(=O)(=O)c1ccc(N)cc1 [SULFACARBAMIDE] | > 30 µM | > 30 µM | > 30 µM | > 30 µM | > 30 µM | > 30 µM
28 | CCCCCCCCCCCCCCCC(=O)OC/C=C(C)/C=C/C=C(C)/C=C/C1=C(C)CCCC1(C)C [VITAMIN A PALMITATE] | > 30 µM | > 30 µM | > 30 µM | > 30 µM | > 30 µM | > 30 µM
